What is called Solubility is the concentration that dissolves in the medium under given conditions. A word on the solubility: it is the dissolved amount per volume that the medium holds. A lower solubility goes with a poorly soluble substance.

≈ marks a conversion by molar mass, not a printed value. Like-named read-outs stand apart in the source and are kept apart here.

Experimental findings from patent US12297179B2, “Crystalline and salt forms of an organic compound and pharmaceutical compositions thereof” (Servier Pharmaceuticals LLC, priority 2018, dated 2025) are described below.

Assay type in all cases: physicochemical
Series [1] can be described thus: Kinetic solubility in bio-relevant media (SGF/FaSSGF, FaSSIF, FeSSIF) and H2O at 37° C., with pH of supernatant. As to conditions: for Solubility: 37° C.; for pH: supernatant. Here is the method:
Weigh 100 mg of sodium chloride into a 50-mL volumetric flask. Add appropriate volume of purified water and sonicate until all solids are completely dissolved. Add sufficient purified water closely to the target volume and adjust to pH 1.6. Weigh 3 mg of FaSSIF/FeSSIF/FaSSGF powder into the volumetric flask and sonicate until the powder is completely dissolved. Dilute to target volume with purified water and mix well.
Weigh 0.170 g of monobasic sodium phosphate, 0.021 g of sodium hydroxide and 0.31 g of sodium chloride into a 50-mL volumetric flask. Add appropriate volume of purified water and sonicate until all solids are completely dissolved. Add sufficient purified water closely to the target volume and adjust to pH 6.5. Weigh 110 mg of FaSSIF/FeSSIF/FaSSGF powder into the volumetric flask and sonicate until the powder is completely dissolved. Dilute to target volume with purified water and mix well.
Weigh 0.41 mL of glacial acetic acid, 0.202 g of sodium hydroxide and 0.594 g of sodium chloride into a 50-mL volumetric flask. Add appropriate volume of purified water and sonicate until all solids are completely dissolved. Add sufficient purified water closely to the target volume and adjust to pH 5.0. Weigh 560 mg of FaSSIF/FeSSIF/FaSSGF powder into the volumetric flask and sonicate until the powder is completely dissolved. Dilute to target volume with purified water and mix well.
An Agilent 1260 HPLC with DAD detector was utilized and detailed chromatographic conditions for solubility analysis are listed in Table 5.
Kinetic solubility of Tris salt Form A and free acid Form D were measured in three bio-relevant media (SGF, FaSSIF and FeSSIF) at 37° C. In details, ˜30 mg solids were suspended into 4.0 mL of each medium initially and equilibrated via shaking (500 rpm) at 37° C. Approximately 0.8 mL suspension was extracted at each time point of 15/30/60/120 mins and 24 hrs. The supernatant and precipitate were separated by centrifugation (10000 rpm, ˜3 mins) followed by concentration (HPLC) and pH measurement for supernatant and the corresponding solid forms were characterized by XRPD.
Due to the thermodynamic stability of Tris salt Form C, further evaluation was conducted, including kinetic solubility in three bio-relevant media (FaSSGF/FaSSF/FeSSIF) and H2O at 37° C.

The nature of series [2]: Thermodynamic stability study: slurry competition among free acid Form A/B/C/D. The note with it: 50° C. and 70° C. As for the experimental part: To investigate and compare the thermodynamic stability among the identified four crystalline forms of Compound 1 (free acid Form A/B/C/D), two stages of slurry competition experiments were conducted, of which the first one was to study the anhydrous solvent systems and the second stage was solvent systems with different water activities (aw).
In the first stage, ˜2 mg of each solid form (free acid Form A/B/C/D) was physically mixed first, followed by addition of 0.5 mL solvent to form suspension. At various slurrying conditions, a small amount of solid was isolated after ˜7 days for XRPD test.
To further explore any impact of water content on the conversion relationship, six conditions with different water activities and temperatures were applied. Approximately 2 mg of each solid form (free acid Form A/B/C/D) was mixed and suspended in 1.0 mL corresponding solvent systems. After slurry for ˜1 month, the solids were isolated for XRPD test.

Series [3] is described as follows: Hygroscopicity by dynamic vapor sorption (DVS). As to conditions: DVS, humidity varied from 0% RH to 80% RH at 25° C.; listed as freeform Type D. As for the experimental part: DVS was measured via a SMS (Surface Measurement Systems) DVS Intrinsic. The relative humidity at 25° C. was calibrated against deliquescence point of LiCl, Mg(NO3)2 and KCl.
Where [4] appears, read: anhydrous solvent systems, slurry at RT, ~7 days.
Where [5] appears, read: solvent mixtures with different water activities (aw: 0~1), RT, ~1 month.

`Cc1ccccc1-c1ccc(-c2cc(C(=O)O)c3c(c2)nnn3C)cc1` [free acid Form D]: the Solubility in series [1] (FaSSIF and FeSSIF, 37 °C, fassgf or other biorelevant, thermodynamic from solid, in FaSSIF and FeSSIF, read-out: solubility) is 3 to 8 µg/mL (≈ 8.74 to 23.3 µM); in series [1] (FaSSIF, 15 mins), 3.8 µg/mL (≈ 11.1 µM); in series [1] (FaSSIF, 30 mins), 4.3 µg/mL (≈ 12.5 µM); in series [1] (FaSSIF, 60 mins) it was 4.8 µg/mL (≈ 14 µM); in series [1] (FaSSIF, 120 mins) it was 5.0 µg/mL (≈ 14.6 µM); in series [1] (FaSSIF, 24 hrs), 4.8 µg/mL (≈ 14 µM). Moreover, the Solubility in series [1] (FeSSIF, 15 mins) came to 5.6 µg/mL (≈ 16.3 µM); in series [1] (FeSSIF, 30 mins), 7.3 µg/mL (≈ 21.3 µM); in series [1] (FeSSIF, 60 mins), 5.9 µg/mL (≈ 17.2 µM); in series [1] (FeSSIF, 120 mins), 7.7 µg/mL (≈ 22.4 µM); in series [1] (FeSSIF, 24 hrs), 6.4 µg/mL (≈ 18.6 µM); in series [1] (SGF, 30 mins), 0.11 µg/mL (≈ 0.32 µM). Also, the Solubility in series [1] (SGF, 60 mins) was 0.14 µg/mL (≈ 0.408 µM); in series [1] (SGF, 24 hrs) it was 0.18 µg/mL (≈ 0.524 µM); in series [1] (SGF, 37 °C, pH 1.6, fassgf or other biorelevant, thermodynamic from solid, in SGF, read-out: solubility), below 1 µg/mL. Besides, the concentration in solution in series [1] (SGF, 37 °C, pH 1.6, fassgf or other biorelevant, thermodynamic from solid, 120 mins) (solubility at 120 min) came to 0.13 µg/mL (≈ 0.379 µM). In addition, the pH in series [1] (FaSSIF (blank pH 6.5), 15 mins) was determined as 6.4; in series [1] (FaSSIF (blank pH 6.5), 30 mins), 6.5; in series [1] (FaSSIF (blank pH 6.5), 60 mins), 6.5; in series [1] (FaSSIF (blank pH 6.5), 120 mins), 6.5; in series [1] (FaSSIF (blank pH 6.5), 24 hrs) it was 6.4; in series [1] (FeSSIF (blank pH 5.0), 15 mins) it was 5.0. Further, the pH in series [1] (FeSSIF (blank pH 5.0), 30 mins) is listed as 5.0; in series [1] (FeSSIF (blank pH 5.0), 60 mins), 5.0; in series [1] (FeSSIF (blank pH 5.0), 120 mins) it was 5.0; in series [1] (FeSSIF (blank pH 5.0), 24 hrs), 5.0; in series [1] (SGF (blank pH 1.8), 15 mins), 2.0; in series [1] (SGF (blank pH 1.8), 30 mins), 2.1. The pH is listed as 2.1 in series [1] (SGF (blank pH 1.8), 60 mins); 2.1 in series [1] (SGF (blank pH 1.8), 120 mins); 2.2 in series [1] (SGF (blank pH 1.8), 24 hrs). Further, the “form after slurry competition (XRPD), thermodynamic stability” value (“form after slurry competition (XRPD)” for short) in series [2] (setting [4]) and in series [2] (setting [5]) was “more stable than Form A/B/C” each time. Further, the moisture uptake in series [3] is on record as around 5 wt %.

For the compound `Cc1ccccc1-c1ccc(-c2cc(C(=O)O)c3c(c2)nnn3C)cc1` [free acid Form B], the “form after slurry competition (XRPD)” value in series [2] (setting [4]) and in series [2] (setting [5]) was “converted to Form D” in each case.

For `Cc1ccccc1-c1ccc(-c2cc(C(=O)O)c3c(c2)nnn3C)cc1` [free acid Form A], the “form after slurry competition (XRPD)” value in series [2] (setting [4]) and in series [2] (setting [5]) was “converted to Form D” each time.

Take `Cc1ccccc1-c1ccc(-c2cc(C(=O)O)c3c(c2)nnn3C)cc1` [free acid Form C]: the “form after slurry competition (XRPD)” value in series [2] (setting [4]) and in series [2] (setting [5]) was “converted to Form D” in each case.
